According to patent US8003083B2, “Benzylidene malonamide and salt thereof, ultraviolet ray absorbent, and agent for external application to the skin” (Shiseido Company, Ltd., priority 2006, dated 2011):

Key:
[1] = Ultraviolet absorption spectrum measurement; format: physicochemical; conditions: solvent water, concentration 10 ppm, optical path length 1 cm, FIG. 1
Method: An ultraviolet absorption spectrum of the benzilidene malonamide obtained in Example 1 was measured (solvent: water, concentration 10 ppm, optical path length 1 cm) by using a spectrophotometer (V-560 from Jasco Co. Ltd.).

[2] = 405 nm visible light absorbance measurement; format: physicochemical; conditions: water, optical path length 1 cm
Method: For a Comparative example, sodium 2-hydroxy-4-methoxy-5-sulfoquisonium benzophenone, a conventional water soluble ultraviolet absorbent, was measured in the same manner.

Solubility in water = format: physicochemical
Method: Solubility in water was measured for the benzilidene malonamide of the present invention. For a Comparative example, sodium 2-hydroxy-4-methoxy-5-sulfoquisonium benzophenone was measured in the same manner.

[3] = system: degree of sunburn after exposure to direct sunlight; assay: Ultraviolet prevention effect, actual use test on a beach in summer; format: in vivo, human
Method: An actual use test was conducted on a beach in summer. The same amount of sample was applied on the left and right halves of panelists' backs. The degree of sunburn after exposure to direct sunlight was evaluated based on the following criteria. The test was conducted with a group of 10 panelists.
Very effective: No or very little sunburn symptoms were observed.
Effective: A mild degree of sunburn symptoms were observed.
Not effective: A strong degree of sunburn symptoms were observed.
⊚: 80% or more of the subjects report “very effective” or “effective.”
◯: 50% or more and less than 80% of the subjects report “very effective” or “effective.”
∇: 30% or more and less than 50% of the subjects report “very effective” or “effective.”
X: Less than 30% of the subjects report “very effective” or “effective.”
(§1) (a) lotion and (b) cream were prepared according to the following recipes. For the ultraviolet absorbent, benzilidene malonamide (bis-N,N′-[2-(2-hydroxyethoxy)ethyl]-4-methoxybenzilidene malonamide) of the present invention and, as a Comparison example, a water soluble ultraviolet absorbent sodium 2-hydroxy-4-methoxy-5-sulfoquisonium benzophenone were used.
(§2) The water phase and the alcohol phase were separately prepared and then mixed together.
(§3) Propylene glycol and the ultraviolet absorbent were dissolved in ion-exchanged water and the temperature was raised to 70° C. and maintained. The other ingredients were mixed, heated and melted, and the temperature was maintained at 70° C. (oil phase). The oil phase was added to the water phase and pre-emulsification was conducted; after a homomixer was used to emulsify the mixture homogeneously, the temperature was cooled down to 30° C. while thorough stirring was maintained.

[4] = External appearance and low temperature storage of lotion and cream samples; format: physicochemical
Method: as §1, §2, §3

[5] = system: flexor forearm skin of healthy male and female volunteers; assay: Skin irritability test, 24-hour closed patch test; format: in vivo, human; conditions: ultraviolet absorbent 10 wt %, 20 volunteers
Method: This test was conducted by using the same sample as in Test example 4 (blend ratio of the ultraviolet absorbent was 10 wt %).
A Finn chamber was used to conduct the 24-hour closed patch test on the flexor forearm of healthy male and female volunteers; a group of 20 volunteers were used and the following evaluation criteria were used.
The average score was calculated and the evaluation was done based on the following criteria.
⊚: The average score is 0.
◯: The average score is more than 0 and less than 1.
Δ: The average score is 1 or more and less than 2.
X: The average score is 2 or more.

[6] = Photostability test, sunlight exposure; format: physicochemical; conditions: 80 MJ/m^2
Method: A solution of the ultraviolet absorbent of the present invention was exposed to sunlight for two weeks (sunlight exposure level 80 MJ/m^2) and then the residual ratio and changes in the appearance were investigated and the ultraviolet absorption spectrum was measured (solvent: water, concentration 10 ppm, optical path length 1 cm) by using a spectrophotometer; the ultraviolet absorption spectrum was integrated over a range of 290-400 nm to obtain the area value, which was compared with the value before the sunlight exposure.
Changes in the residual ratio and the area value of the ultraviolet absorption spectrum were evaluated based on the following criteria.
Δ: 70% or more and less than 90% of the value before the sunlight exposure.
X: Less than 70% of the value before the sunlight exposure.

[7] = Stability test for use in combination with an inorganic powder ultraviolet shielding agent; format: physicochemical; conditions: sunscreen cream with inorganic powders, ultraviolet absorbent 10.0 wt %, stored at 50° C. for two months, visual
Method: Sunscreen cream was prepared according to the following recipe; it was stored at 50° C. for two months and visually observed for discoloration to investigate the stability when used in combination with an inorganic powder ultraviolet shielding agent.

For `COc1ccc(C=C(C(=O)NCCOCCO)C(=O)NCCOCCO)cc1` [Benzilidene malonamide of formula (1), bis-N,N′-[2-(2-hydroxyethoxy)ethyl]-4-methoxybenzilidene malonamide], the “Ultraviolet absorption spectrum (absorption capacity)” value [1] was “superior absorption capacity over a wide ultraviolet wavelength region”, the Absorbance ([2]; concentration 10 wt %) was 0 and the “Solubility (room temperature)” value (Solubility in water) was 30 or more wt %. The Ultraviolet prevention effect ([3]; (a) Lotion, blend ratio 1, 10 panelists) was “⊚ (80% or more of the subjects report “very effective” or “effective.”)”, the Ultraviolet prevention effect ([3]; (a) Lotion, blend ratio 5, 10 panelists) was “⊚ (80% or more of the subjects report “very effective” or “effective.”)” and the Ultraviolet prevention effect ([3]; (a) Lotion, blend ratio 10, 10 panelists) was “⊚ (80% or more of the subjects report “very effective” or “effective.”)”. The Ultraviolet prevention effect ([3]; (b) Cream, blend ratio 1, 10 panelists) was “⊚ (80% or more of the subjects report “very effective” or “effective.”)”, the Ultraviolet prevention effect ([3]; (b) Cream, blend ratio 5, 10 panelists) was “⊚ (80% or more of the subjects report “very effective” or “effective.”)” and the Ultraviolet prevention effect ([3]; (b) Cream, blend ratio 10, 10 panelists) was “⊚ (80% or more of the subjects report “very effective” or “effective.”)”. The External appearance ([4]; (b) Cream, blend ratio 1) was “White”, the External appearance ([4]; (b) Cream, blend ratio 5) was “White” and the External appearance ([4]; (b) Cream, blend ratio 10) was “White”. The “Precipitation during low temperature storage” value ([4]; external preparations of Tables 3 and 4 (lotion and cream)) was “no precipitation of the ultraviolet absorbent was observed at all”, the “Skin irritability patch test evaluation (average score)” value ([5]; Cream) was “⊚ (The average score is 0.)” and the “Skin irritability patch test evaluation (average score)” value ([5]; Lotion) was “⊚ (The average score is 0.)”. For the same compound, the “Changes in the area value of the ultraviolet absorption spectrum” value ([6]; 290-400 nm integrated, after sunlight for two weeks, water, 10 ppm, 1 cm) was “⊚ (95% or more of the value before the sunlight exposure.)”, the Residual ratio ([6]; solution exposed to sunlight for two weeks) was “⊚ (95% or more of the value before the sunlight exposure.)” and the Discoloration [7] was “None”.

`COc1cc(O)c(C(=O)c2ccccc2)cc1S(=O)(=O)[O-].[Na+]` [sodium 2-hydroxy-4-methoxy-5-sulfoxonium benzophenone, reference compound] gave an Absorbance ([2]; concentration 0.1 wt %) of 0.06, an Absorbance ([2]; concentration 1 wt %) of 0.32 and an Absorbance ([2]; concentration 6 wt %) of 1.99. For the same compound, the “Precipitation during low temperature storage” value ([4]; (a) Lotion, blend ratio 5) was “**Crystals precipitated during low temperature storage”, the External appearance ([4]; (b) Cream, blend ratio 1) was “Yellow” and the External appearance ([4]; (b) Cream, blend ratio 5) was “Yellow**”. The “Precipitation during low temperature storage” value ([4]; (b) Cream, blend ratio 5) was “**Crystals precipitated during low temperature storage”.
